Converted amounts (≈) assume the structure as drawn. Residues, ends and D or L forms follow the SMILES beside them. *: point of attachment. Biotin = O=C1N[C@H]2[C@H](CS[C@H]2CCCCC(=O)*)N1
These molecules were tested on Escherichia coli ATCC 25922 (assay: Antimicrobial assay (MIC), E. coli). Conditions: not given.
Format: cell-based
Experimental: Antimicrobial assay. Two bacterial strains (Escherichia coli ATCC 25922 and Enterococcus faecalis ATCC 29212) were inoculated on heart infusion agar with 5% sheep blood and incubated aerobically overnight at 37° C. From the pure cultures, suspensions were made in saline to a density of 0.5 McFarland. These suspensions were diluted ten-fold in Mueller Hinton II broth, resulting in a final inoculum of approximately 10^7 cfu/ml.
Standard 96-well microtiter trays were filled with 100 ill of two-fold dilutions of peptide in physiologic salt solution in each well, resulting in the following concentration range: 4000, 2000, 1000, 500, 250, 125, 62.25, 31.63, 15.82, 7.96 and 0 μg/ml. The trays in column 12 were filled with 200 μl MH II broth (negative control).
Columns 1-11 of the microtiter trays were filled with 100 μl of the final inoculum of the bacterial suspensions, thus diluting the concentrations of the peptide two fold, resulting in the following peptide concentration range in the wells: 2000, 1000, 500, 250, 125, 62.25, 31.63, 15.82, 7.96, 3.98 and 0 μg/ml. In rows B, C and D, 100 μl of the final inoculum of E. coli and, in rows E, F and G, 100 μl of the final inoculum of E. faecalis was pipetted. The final bacterial concentration was approximately 5×10^5 cfu/well. All trays were sealed and incubated overnight at 37° C. After incubation, the microtiter trays were inspected visually for bacterial growth and the absorbance of the cultures at 630 nm (A630) was determined with an ELISA-reader. […] The experiment was performed independently in triplicate. The test was repeated again in triplicate after two days with the final peptide concentration range in the wells: 5000, 2500, 1250, 625, 312.5, 156.25, 78.12, 39.06, 19.58, 9.79, 4.88, 2.44 and 1.22 μg/ml.

| Molecule | Antibacterial activity (in words) |
| --- | --- |
| CC[C@H](C)[C@H](NC(=O)[C@H](CC(C)C)NC(=O)[C@H](CCCCN)NC(=O)CNC(=O)[C@H](CC(N)=O)NC(=O)CNC(=O)CCCC[C@@H]1SC[C@@H]2NC(=O)N[C@@H]21)C(=O)N[C@@H](CCCCN)C(=O)NCC(=O)N[C@@H](CCCNC(=N)N)C(=O)N[C@H](C(=O)N1CCC[C@H]1C(=O)N[C@H](C(=O)N[C@@H](CCCCN)C(=O)N[C@@H](Cc1ccccc1)C(=O)NCC(=O)N[C@@H](CCCCN)C(=O)N[C@@H](C)C(=O)N[C@@H](CC(=O)O)C(=O)N[C@@H](CS)C(=O)N[C@@H](CC(=O)O)C(=O)N[C@@H](CCCNC(=N)N)C(=O)N1CCC[C@H]1C(=O)N1CCC[C@H]1C(=O)N[C@@H](CCCCN)C(=O)N[C@@H](Cc1c[nH]cn1)C(=O)N[C@@H](CO)C(=O)N[C@@H](CCC(N)=O)C(=O)N[C@@H](CC(N)=O)C(=O)NCC(=O)N[C@@H](CCSC)C(=O)NCC(=O)N[C@@H](CCCCN)C(N)=O)[C@@H](C)CC)[C@@H](C)O [L3 loop 59-88] (Biotin-GNGKLIKGRTPIKFGKADCDRPPKHSQNGMGK-NH2) | no antibacterial activity |

Same assay, conditions: overnight at 37° C.

| Molecule | MIC (minimal inhibitory concentration needed to inhibit bacterial growth) [µg/mL] |
| --- | --- |
| CC(C)C[C@H](NC(=O)[C@H](CCC(N)=O)NC(=O)[C@H](CCCCN)NC(=O)CNC(=O)[C@H](CC(C)C)NC(=O)[C@H](Cc1c[nH]c2ccccc12)NC(=O)[C@@H](NC(=O)[C@@H](NC(=O)[C@H](CC(C)C)NC(=O)[C@H](CCCCN)NC(=O)[C@H](C)NC(=O)[C@@H](NC(=O)CNC(=O)[C@H](CCC(N)=O)NC(=O)[C@H](CCCNC(=N)N)NC(=O)[C@H](C)NC(=O)CNC(=O)[C@H](CCC(=O)O)NC(=O)CCCC[C@@H]1SC[C@@H]2NC(=O)N[C@@H]21)[C@@H](C)O)[C@@H](C)O)[C@@H](C)O)C(=O)NCC(=O)N[C@H](C(=O)N[C@@H](C)C(=O)NCC(=O)N[C@@H](CCCCN)C(=O)N[C@@H](CCCCN)C(=O)N[C@@H](CC(C)C)C(=O)N[C@@H](CCC(=O)O)C(=O)N[C@@H](CC(N)=O)C(=O)N[C@@H](CCCCN)C(=O)N[C@@H](CO)C(=O)N[C@@H](CCCCN)C(=O)N[C@H](C(=O)N[C@@H](Cc1c[nH]c2ccccc12)C(=O)N[C@@H](Cc1ccccc1)C(=O)NCC(=O)N[C@@H](C)C(=O)N[C@@H](Cc1ccc(O)cc1)C(=O)N[C@@H](C)C(N)=O)[C@@H](C)O)[C@@H](C)O [194-230] (Biotin-EGARQGTAKLTTWLGKQLGTAGKKLENKSKTWFGAYA-NH2) | 93 (≈ 22 µM) |
| CC[C@H](C)[C@H](NC(=O)[C@H](CCCNC(=N)N)NC(=O)[C@H](CC(C)C)NC(=O)[C@H](CCC(N)=O)NC(=O)[C@H](CCCNC(=N)N)NC(=O)CNC(=O)[C@H](CC(C)C)NC(=O)[C@H](Cc1c[nH]c2ccccc12)NC(=O)[C@H](CO)NC(=O)[C@@H](NC(=O)[C@@H](NC(=O)[C@H](CCCNC(=N)N)NC(=O)[C@H](C)NC(=O)[C@H](C)NC(=O)CNC(=O)[C@H](CCC(N)=O)NC(=O)[C@H](CCCNC(=N)N)NC(=O)[C@H](C)NC(=O)[C@H](CC(N)=O)NC(=O)[C@H](CCC(=O)O)NC(=O)[C@@H](NC(=O)[C@@H](NC(=O)[C@H](CC(N)=O)NC(=O)[C@@H](NC(=O)[C@H](CCSC)NC(=O)CNC(=O)[C@H](CC(=O)O)NC(=O)[C@H](CC(C)C)NC(=O)[C@H](CC(C)C)NC(=O)[C@H](Cc1ccc(O)cc1)NC(=O)CCCC[C@@H]1SC[C@@H]2NC(=O)N[C@@H]21)[C@@H](C)O)[C@@H](C)O)[C@@H](C)CC)C(C)C)[C@@H](C)O)C(=O)N[C@@H](C)C(=O)NCC(=O)N[C@@H](CCCCN)C(=O)N[C@@H](CCCNC(=N)N)C(=O)N[C@@H](CC(C)C)C(=O)N[C@@H](CCC(=O)O)C(=O)NCC(=O)N[C@@H](CCCNC(=N)N)C(=O)N[C@@H](CO)C(=O)N[C@@H](CCCCN)C(N)=O [181-220] | 51 (≈ 10.8 µM) |
| CC[C@H](C)[C@H](NC(=O)[C@H](CC(C)C)NC(=O)[C@H](CCCCN)NC(=O)CNC(=O)[C@H](CC(N)=O)NC(=O)CNC(=O)CCCC[C@@H]1SC[C@@H]2NC(=O)N[C@@H]21)C(=O)N[C@@H](CCCCN)C(=O)NCC(=O)N[C@@H](CCCNC(=N)N)C(=O)N[C@H](C(=O)N1CCC[C@H]1C(=O)N[C@H](C(=O)N[C@@H](CCCCN)C(=O)N[C@@H](Cc1ccccc1)C(=O)NCC(=O)N[C@@H](CCCCN)C(=O)N[C@@H](C)C(=O)N[C@@H](CC(=O)O)C(=O)N[C@@H](CS)C(=O)N[C@@H](CC(=O)O)C(=O)N[C@@H](CCCNC(=N)N)C(=O)N1CCC[C@H]1C(=O)N1CCC[C@H]1C(=O)N[C@@H](CCCCN)C(=O)N[C@@H](Cc1c[nH]cn1)C(=O)N[C@@H](CO)C(=O)N[C@@H](CCC(N)=O)C(=O)N[C@@H](CC(N)=O)C(=O)NCC(=O)N[C@@H](CCSC)C(=O)NCC(=O)N[C@@H](CCCCN)C(N)=O)[C@@H](C)CC)[C@@H](C)O [L3 loop 59-88] (Biotin-GNGKLIKGRTPIKFGKADCDRPPKHSQNGMGK-NH2) | >500 |

These molecules were tested on guinea pig erythrocytes (assay: Hemolytic assay, guinea pig erythrocytes). Conditions: 1% v/v, one hour at 37° C.
Format: cell-based
Experimental: Hemolytic assay. Hemolytic activity of various peptide concentrations was determined by incubation with human, guinea pig or sheep erythrocyte suspensions (final erythrocyte concentration, 1% v/v) for one hour at 37° C. After cooling and centrifugation, the optical density of the supernatants were measured at 540 nm. Peptide concentrations causing 50% hemolysis (EC50) were derived from the dose-response curves.

| Molecule | Hemolysis (peptide concentration causing 50% hemolysis) [mg/mL] |
| --- | --- |
| CC(C)C[C@H](NC(=O)[C@H](CCC(N)=O)NC(=O)[C@H](CCCCN)NC(=O)CNC(=O)[C@H](CC(C)C)NC(=O)[C@H](Cc1c[nH]c2ccccc12)NC(=O)[C@@H](NC(=O)[C@@H](NC(=O)[C@H](CC(C)C)NC(=O)[C@H](CCCCN)NC(=O)[C@H](C)NC(=O)[C@@H](NC(=O)CNC(=O)[C@H](CCC(N)=O)NC(=O)[C@H](CCCNC(=N)N)NC(=O)[C@H](C)NC(=O)CNC(=O)[C@H](CCC(=O)O)NC(=O)CCCC[C@@H]1SC[C@@H]2NC(=O)N[C@@H]21)[C@@H](C)O)[C@@H](C)O)[C@@H](C)O)C(=O)NCC(=O)N[C@H](C(=O)N[C@@H](C)C(=O)NCC(=O)N[C@@H](CCCCN)C(=O)N[C@@H](CCCCN)C(=O)N[C@@H](CC(C)C)C(=O)N[C@@H](CCC(=O)O)C(=O)N[C@@H](CC(N)=O)C(=O)N[C@@H](CCCCN)C(=O)N[C@@H](CO)C(=O)N[C@@H](CCCCN)C(=O)N[C@H](C(=O)N[C@@H](Cc1c[nH]c2ccccc12)C(=O)N[C@@H](Cc1ccccc1)C(=O)NCC(=O)N[C@@H](C)C(=O)N[C@@H](Cc1ccc(O)cc1)C(=O)N[C@@H](C)C(N)=O)[C@@H](C)O)[C@@H](C)O [194-230] (Biotin-EGARQGTAKLTTWLGKQLGTAGKKLENKSKTWFGAYA-NH2) | 0.25 |
| CC[C@H](C)[C@H](NC(=O)[C@H](CCCNC(=N)N)NC(=O)[C@H](CC(C)C)NC(=O)[C@H](CCC(N)=O)NC(=O)[C@H](CCCNC(=N)N)NC(=O)CNC(=O)[C@H](CC(C)C)NC(=O)[C@H](Cc1c[nH]c2ccccc12)NC(=O)[C@H](CO)NC(=O)[C@@H](NC(=O)[C@@H](NC(=O)[C@H](CCCNC(=N)N)NC(=O)[C@H](C)NC(=O)[C@H](C)NC(=O)CNC(=O)[C@H](CCC(N)=O)NC(=O)[C@H](CCCNC(=N)N)NC(=O)[C@H](C)NC(=O)[C@H](CC(N)=O)NC(=O)[C@H](CCC(=O)O)NC(=O)[C@@H](NC(=O)[C@@H](NC(=O)[C@H](CC(N)=O)NC(=O)[C@@H](NC(=O)[C@H](CCSC)NC(=O)CNC(=O)[C@H](CC(=O)O)NC(=O)[C@H](CC(C)C)NC(=O)[C@H](CC(C)C)NC(=O)[C@H](Cc1ccc(O)cc1)NC(=O)CCCC[C@@H]1SC[C@@H]2NC(=O)N[C@@H]21)[C@@H](C)O)[C@@H](C)O)[C@@H](C)CC)C(C)C)[C@@H](C)O)C(=O)N[C@@H](C)C(=O)NCC(=O)N[C@@H](CCCCN)C(=O)N[C@@H](CCCNC(=N)N)C(=O)N[C@@H](CC(C)C)C(=O)N[C@@H](CCC(=O)O)C(=O)NCC(=O)N[C@@H](CCCNC(=N)N)C(=O)N[C@@H](CO)C(=O)N[C@@H](CCCCN)C(N)=O [181-220] | 0.09 |

Each molecule was assayed on live cells in suspension or subconfluent monolayers (assay: not given). Conditions: not given.
Format: cell-based

| Molecule | Concentration (translocation activity of transport peptides) [µM] | Translocation activity (in words) |
| --- | --- | --- |
| Biotin-RPRGTRGKGRRIRR-NH2 [HIV-1 tat/tar] | 0.3 |  |
| Biotin-KRIPNKKPGKKTTTKPTKK-NH2 [MDP-19] | 0.3 |  |
| CC[C@H](C)[C@H](NC(=O)[C@H](CC(C)C)NC(=O)[C@H](CCCCN)NC(=O)CNC(=O)[C@H](CC(N)=O)NC(=O)CNC(=O)CCCC[C@@H]1SC[C@@H]2NC(=O)N[C@@H]21)C(=O)N[C@@H](CCCCN)C(=O)NCC(=O)N[C@@H](CCCNC(=N)N)C(=O)N[C@H](C(=O)N1CCC[C@H]1C(=O)N[C@H](C(=O)N[C@@H](CCCCN)C(=O)N[C@@H](Cc1ccccc1)C(=O)NCC(=O)N[C@@H](CCCCN)C(=O)N[C@@H](C)C(=O)N[C@@H](CC(=O)O)C(=O)N[C@@H](CS)C(=O)N[C@@H](CC(=O)O)C(=O)N[C@@H](CCCNC(=N)N)C(=O)N1CCC[C@H]1C(=O)N1CCC[C@H]1C(=O)N[C@@H](CCCCN)C(=O)N[C@@H](Cc1c[nH]cn1)C(=O)N[C@@H](CO)C(=O)N[C@@H](CCC(N)=O)C(=O)N[C@@H](CC(N)=O)C(=O)NCC(=O)N[C@@H](CCSC)C(=O)NCC(=O)N[C@@H](CCCCN)C(N)=O)[C@@H](C)CC)[C@@H](C)O [L3 loop 59-88] (Biotin-GNGKLIKGRTPIKFGKADCDRPPKHSQNGMGK-NH2) |  | showed translocation activity |

Same assay, conditions: Table 10

| Molecule | Concentration (translocation activity), mapping of restrictocin L3 loop [µM] |
| --- | --- |
| CC[C@H](C)[C@H](NC(=O)[C@H](CC(C)C)NC(=O)[C@H](CCCCN)NC(=O)CNC(=O)[C@H](CC(N)=O)NC(=O)CNC(=O)CCCC[C@@H]1SC[C@@H]2NC(=O)N[C@@H]21)C(=O)N[C@@H](CCCCN)C(=O)NCC(=O)N[C@@H](CCCNC(=N)N)C(=O)N[C@H](C(=O)N1CCC[C@H]1C(=O)N[C@H](C(=O)N[C@@H](CCCCN)C(=O)N[C@@H](Cc1ccccc1)C(=O)NCC(=O)N[C@@H](CCCCN)C(=O)N[C@@H](C)C(=O)N[C@@H](CC(=O)O)C(=O)N[C@@H](CS)C(=O)N[C@@H](CC(=O)O)C(=O)N[C@@H](CCCNC(=N)N)C(=O)N1CCC[C@H]1C(=O)N1CCC[C@H]1C(=O)N[C@@H](CCCCN)C(=O)N[C@@H](Cc1c[nH]cn1)C(=O)N[C@@H](CO)C(=O)N[C@@H](CCC(N)=O)C(=O)N[C@@H](CC(N)=O)C(=O)NCC(=O)N[C@@H](CCSC)C(=O)NCC(=O)N[C@@H](CCCCN)C(N)=O)[C@@H](C)CC)[C@@H](C)O [L3 loop 59-88] (Biotin-GNGKLIKGRTPIKFGKADCDRPPKHSQNGMGK-NH2) | 1.0 |
